Experimental data from patent publication US20040053989A1, “Dithiolthione compounds for the treatment of neurological disorders and for memory enhancement” (Patrick Prendergast, priority 1999, published 2004).
Entries after “also recorded” stand apart in the source; their conditions may differ. Read-outs that look alike come from different tables or passages of the source.

Legend:
[1] = H2O2-dependent oxidation of 3,3′-diaminobenzidine (DAB) by lesions in AD brain tissue sections after chelator treatment; design: species or system human; details: prior treatment of AD brain tissue sections
Excerpt: AD is associated with abnormalities of iron metabolism including increased levels of free iron as well as altered levels of iron transport and storage proteins. […] In addition to the NFT and Aβ deposits, redox active metals can be identified in the cytoplasm by the same DAB reaction. […] Although in situ histochemical techniques lack the sensitivity to detect copper, copper (as well as iron) could contribute to the redox activity. The relative effectiveness of copper- and iron-selective chelating agents was used to remove the lesion-dependent redox activity, which provided evidence for both copper- and iron-mediated redox activity in AD. […] Also, DAB oxidation was inhibited by chelation of metals with […]

[2] = tested on: Primary cortical neuron cultures; details: Oltipraz 20 μM, Aβ1-42 25 μM, 5 days, MTT; p<0.05, ANOVA
Description: Primary cortical neuron cultures were established from E14 mice. […] Cultures were incubated for 5 days (37° C.) and then cell viability was determined using the MTT reduction assay. Cultures were also monitored for morphological changes by phase contrast microscopy. The MTT assay was performed by adding water soluble MTT to the culture medium at 0.5 mg/mL and incubating for 30 min. […] The culture medium was removed and the MTT solubilized in DMSO. Aliquots of solubilized MTT were read on a spectrophotometric plate reader at 570 nm.

[3] = tested on: Primary fibroblast cultures; experiment: H2O2 toxicity in primary fibroblast cultures, murine model for oxidative stress (MTT); format: cell-based, mice; details: H2O2 150 μM, Oltipraz 25 μM
Description: (§1) Primary fibroblast cultures were prepared from normal mice (non Tg), mice transfected to produce human wild type presenilin 1 (WT Tg) or mice transfected to produce mutant human presenilin 1 (Mut Tg). All mice are derived from an identical genetic background. […] 50U/mL of catalase was used as a benchmark antioxidant against H2O2 toxicity. Cell viability was determined with the MTT reduction assay. […] Cell viability was determined with the MTT assay.

Mut Tg fibroblasts = details: Oltipraz 10, 25 and 50 μM; fibroblasts treated with toxic levels of BSO
Description: as §1

[4] = tested on: neurons and clonal cell lines; experiment: Attenuation of amyloid-β toxicity; format: cell-based; details: for attenuation of amyloid-β toxicity, dose dependence: pre-incubated with amyloid-β
Excerpt: In vitro, amyloid-β is toxic to neurons and clonal cell lines.

L. donovani = experiment: In vitro anti-protozoal activity, L. donovani; format: cell-based
T. cruzi = experiment: In vitro anti-protozoal activity, T. cruzi; format: cell-based
T.b.rhodesiense STIB900 = experiment: In vitro anti-protozoal activity, T.b.rhodesiense STIB900; format: cell-based
P. falciparum 3D7 = tested on: P. falciparum 3D7
Description: For in-vitro antimalarial testings, micro-titer plates were used. The concentration of drugs was prepared as pMol/well according to WHO standard procedures (WHO, 1990). The test compound was dissolved in 15% DMSO in sterile RPMI 1640.
The micro-titer plates were predosed with various concentration of the test compound. 50 μL of parasitised erythrocyte suspension in RPMI-1640 (0.2 ml erythrocyte +0.3 ml serum +4-5 ml RPMI-1640) were dispensed in microtiter wells containing various concentrations of drug. Triplicate readings were made for each concentration.
The testing was carried out according to the procedure of Desjardins et al. 1979. After 30 hr culture at 37 degrees C., the same microtiter plates from schizont inhibition assays with another triplicate wells were pulsed with ^3H-hypoxanthine for overnight. The cell suspensions were washed twice on millipore glass fiber filter with Millipore filter apparatus. The filter discs were counted for DPM by Beckman LS6000-scintillation counter. The activity of the drug was measured by plotting DPM against concentration of drug.

[5] = sections treated 2 hrs or overnight
[6] = doses of oltipraz effective at chelating in situ or abolishing amyloid-β toxicity; preliminary data

## O=C(O)CN(CCN(CC(=O)O)CC(=O)O)CCN(CC(=O)O)CC(=O)O [DTPA, detapac]
[1]; 1 mM chelator
  inhibition of lesion-associated DAB oxidation: inhibited more than half
[1]; 10 mM chelator
  inhibition of lesion-associated DAB oxidation: completely abolished; also recorded: nearly all
[1]; 100 mM chelator
  inhibition of lesion-associated DAB oxidation: abolished all

## Cc1c(-c2cnccn2)ssc1=S [Oltipraz, oltipraz]
[2]
  cell viability compared to Aβ1-42 alone: small increase in cell viability
[3]
  protective effect relative to that achieved with 50U/mL catalase: about two thirds
[3]; fibroblasts from Mut Tg mice (mutant human presenilin 1)
  protective effect against H2O2 toxicity: not in fibroblasts from Mut Tg mice
[3]; fibroblasts from WT Tg mice (human wild type presenilin 1)
  protective effect against H2O2 toxicity: significant protective effect
[3]; fibroblasts from non Tg mice
  protective effect against H2O2 toxicity: significant protective effect
Mut Tg fibroblasts
  cell viability restored: 100%
[4]
  attenuation of the neurotoxicity of amyloid-β: significantly attenuate
  attenuation of amyloid-β toxicity, dose dependence: reduced in a dose-dependent manner similar to that of deferoxamine
[4]; listed as oltipraz
  attenuation of amyloid-β toxicity, dose dependence: attenuate its toxicity in a dose-dependent manner similar to that of deferoxamine
[4]; shown in a figure
  cell survival in brain tissue sections: increase cell survival
L. donovani; concentration 10
  % Inhibition: 0%
L. donovani; concentration 30
  % Inhibition: 3.2%
T. cruzi; concentration 1
  % Inhibition: 4.3%
T. cruzi; concentration 3
  % Inhibition: 38.6%
T. cruzi; concentration 10
  % Inhibition: 54.6%
T. cruzi; concentration 30
  % Inhibition: 99.7%
T. cruzi; line below the ED50
  ED50 column, second value in parentheses (not explained): (23.8) μg/ml
T.b.rhodesiense STIB900; concentration 10
  % Inhibition: 0%
T.b.rhodesiense STIB900; concentration 30
  % Inhibition: 42.5%
P. falciparum 3D7; concentration 1
  % Inhibition: 0%
P. falciparum 3D7; concentration 3
  % Inhibition: 4.4%
P. falciparum 3D7; concentration 10
  % Inhibition: 96.5%
P. falciparum 3D7; concentration 30
  % Inhibition: 100%
[5]
  iron removal compared with DFX: not as effective as DFX
[6]
  neurotoxicity in vitro: little/no neurotoxicity
